Measured values from US12391674B2, “Heterocyclic compounds for the treatment of epilepsy” (OTSUKA PHARMACEUTICAL CO., LTD., priority 2018, dated 2025).
Read-outs that look alike come from different tables or passages of the source.

What was measured:
[1] = system: ICR mice; experiment: Rotarod test (motor coordination); format: in vivo, mouse; conditions: oral, rotarod 1 hour after administration
Protocol: This test is performed to evaluate the effect of the compound on the motor coordination. In this test example, the example compounds shown in Table 4 below were used as test compounds. Male ICR mice (Japan SLC, Inc., 5-6 weeks, 8 per group) were trained to remain on a fixed speed (15 rpm) rotating rod of rotarod apparatus (Muromachi Kikai Co., Ltd.) for 2 minutes. […] After 1 hour of oral administration, the mice were again placed on the rod accelerated from 4 rpm to 40 rpm over 5 minutes and the latency to fall off the rod was recorded for 200 seconds. The falling latency of the compound administration group was calculated as a relative value relative to the average value of the falling latency in the solvent administration group. Here, a coordination disorder of 25% or less was expressed as “A”, and a coordination disorder of more than 25% and 50% or less was expressed as “B”.

[2] = system: DBA/2 mice; experiment: Audiogenic seizure model; format: in vivo; conditions: Mus musculus, read-out: Seizure suppression
In short: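 Male and female DBA/2 mice (3 weeks old, 8/group) dosed orally at 30 mg/kg in 5% gum arabic; 1 h later exposed to 12.6 kHz, 100-110 dB tone for 1 min or until tonic seizure. Maximum seizure score (0–4) recorded; suppression rate graded A (≥90%), B (70–<90%), C (50–<70%).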

[3] = DBA/2 mice, oral, auditory stimulation 1 hour after administration
[4] = DBA/2 mice, oral, dose 30 mg/kg, auditory stimulation 1 hour after administration

For `COc1ccc(-c2cnc(Oc3ccc(F)cc3)nc2)nn1` [Example 5], the Motor dysfunction ([1]; dose 5 mg/kg) was “A (a coordination disorder of 25% or less)” and the inhibition in vivo at 5 mg/kg [2, 3] was > 90%.
For `COc1ccc(-c2cnc(Oc3ccccc3)nc2)cn1` [Example 6, 5-(6-Methoxypyridin-3-Yl)-2-Phenoxypyrimidine], the Motor dysfunction ([1]; dose 5 mg/kg) was “A (a coordination disorder of 25% or less)” and the inhibition in vivo at 5 mg/kg [2, 3] was > 90%.
With `c1ccc(Oc2ncc(-c3cccnc3)cn2)cc1` [Example 7, 2-Phenoxy-5-(Pyridin-3-Yl)Pyrimidine] the Motor dysfunction ([1]; dose 5 mg/kg) was “A (a coordination disorder of 25% or less)” and the inhibition in vivo at 5 mg/kg [2, 3] was > 90%.
With `Cc1ccc(-c2cnc(Oc3ccccc3)nc2)cn1` [Example 8] the Motor dysfunction ([1]; dose 10 mg/kg) was “A (a coordination disorder of 25% or less)” and the inhibition in vivo at 10 mg/kg [2, 3] was > 90%.
`c1ccc(Oc2ncc(-c3ccncn3)cn2)cc1` [Example 10] was tested, and the Motor dysfunction ([1]; dose 30 mg/kg) was “A (a coordination disorder of 25% or less)” and the inhibition in vivo at 30 mg/kg [2, 4] was > 90%.
`[O-][n+]1cccc(-c2cnc(Oc3ccccc3)nc2)c1` [Example 11, 3-(2-Phenoxypyrimidin-5-Yl)Pyridine 1-Oxide] was tested, and the Motor dysfunction ([1]; dose 5 mg/kg) was “A (a coordination disorder of 25% or less)” and the inhibition in vivo at 5 mg/kg [2, 3] was > 90%.
In the case of `Cc1cc(-c2cnc(Oc3ccccc3)nc2)ccn1` [Example 22], the Motor dysfunction ([1]; dose 5 mg/kg) is reported as “A (a coordination disorder of 25% or less)” and the inhibition in vivo at 5 mg/kg [2, 3] is reported as > 90%.
In the case of `Nc1ccc(-c2cnc(Oc3cccc(F)c3)nc2)nn1` [Example 24, 6-(2-(3-Fluorophenoxy)Pyrimidin-5-Yl)Pyridazin-3-Amine], the Motor dysfunction ([1]; dose 5 mg/kg) is reported as “A (a coordination disorder of 25% or less)” and the inhibition in vivo at 5 mg/kg [2, 3] is reported as > 90%.
With `Nc1ccc(-c2cnc(Oc3ccccc3F)nc2)nn1` [Example 26] the Motor dysfunction ([1]; dose 5 mg/kg) was “A (a coordination disorder of 25% or less)” and the inhibition in vivo at 5 mg/kg [2, 3] was > 90%.
With `FC(F)(F)c1ccc(-c2cnc(Oc3ccccc3)nc2)cn1` [Example 27] the Motor dysfunction ([1]; dose 30 mg/kg) was “A (a coordination disorder of 25% or less)” and the inhibition in vivo at 30 mg/kg [2, 4] was > 90%.
In the case of `Nc1ccc(-c2cnc(Oc3ccccc3)nc2)nn1` [Example 30, 6-(2-Phenoxypyrimidin-5-Yl)Pyridazin-3-Amine], the Motor dysfunction ([1]; dose 5 mg/kg) is reported as “A (a coordination disorder of 25% or less)” and the inhibition in vivo at 5 mg/kg [2, 3] is reported as > 90%.
`c1ccc(Oc2ncc(-c3ccnnc3)cn2)cc1` [Example 31] was tested, and the Motor dysfunction ([1]; dose 5 mg/kg) was “A (a coordination disorder of 25% or less)” and the inhibition in vivo at 5 mg/kg [2, 3] was > 90%.
`Fc1ccc(-c2cnc(Oc3ccccc3)nc2)cn1` [Example 33] was tested, and the Motor dysfunction ([1]; dose 30 mg/kg) was “A (a coordination disorder of 25% or less)” and the inhibition in vivo at 5 mg/kg [2, 3] was > 90%.
In the case of `Cc1ncccc1-c1cnc(Oc2ccccc2)nc1` [Example 34], the Motor dysfunction ([1]; dose 30 mg/kg) is reported as “A (a coordination disorder of 25% or less)” and the inhibition in vivo at 30 mg/kg [2, 4] is reported as > 90%.
In the case of `Nc1ccc(-c2cnc(Oc3ccccc3)nc2)cn1` [Example 36, 5-(2-Phenoxypyrimidin-5-Yl)Pyridin-2-Amine], the Motor dysfunction ([1]; dose 5 mg/kg) is reported as “A (a coordination disorder of 25% or less)” and the inhibition in vivo at 5 mg/kg [2, 3] is reported as > 90%.
For `FC(F)(F)c1ccc(-c2cnc(Oc3ccccc3)nc2)nn1` [Example 38, 3-(2-Phenoxypyrimidin-5-Yl)-6-(Trifluoromethyl)Pyridazine], the Motor dysfunction ([1]; dose 10 mg/kg) was “A (a coordination disorder of 25% or less)” and the inhibition in vivo at 10 mg/kg [2, 3] was > 90%.
`Nc1ccc(-c2cnc(Oc3cccc(C(F)(F)F)c3)nc2)nn1` [Example 40] was tested, and the Motor dysfunction ([1]; dose 3 mg/kg) was “A (a coordination disorder of 25% or less)” and the inhibition in vivo at 3 mg/kg [2, 3] was > 90%.
With `Nc1ccc(-c2cnc(Oc3cccc(OC(F)(F)F)c3)nc2)nn1` [Example 42] the Motor dysfunction ([1]; dose 5 mg/kg) was “A (a coordination disorder of 25% or less)” and the inhibition in vivo at 5 mg/kg [2, 3] was > 90%.
With `Nc1cc(-c2cnc(Oc3ccccc3)nc2)ccn1` [Example 55] the Motor dysfunction ([1]; dose 30 mg/kg) was “A (a coordination disorder of 25% or less)” and the inhibition in vivo at 30 mg/kg ([2]; po, 1 h) was > 90%.
With `Nc1cncc(-c2cnc(Oc3ccccc3)nc2)c1` [Example 58] the Motor dysfunction ([1]; dose 30 mg/kg) was “A (a coordination disorder of 25% or less)” and the inhibition in vivo at 30 mg/kg [2, 4] was > 90%.
With `Cc1nc(N)ccc1-c1cnc(Oc2ccccc2)nc1` [Example 59] the Motor dysfunction ([1]; dose 3 mg/kg) was “A (a coordination disorder of 25% or less)” and the inhibition in vivo at 3 mg/kg [2, 3] was > 90%.
`Cc1ccc(-c2cnc(Oc3ccccc3)nc2)c(N)n1` [Example 64] was tested, and the Motor dysfunction ([1]; dose 3 mg/kg) was “A (a coordination disorder of 25% or less)” and the inhibition in vivo at 3 mg/kg [2, 3] was > 90%.
For `Nc1ccc(-c2cnc(Oc3ccccc3)nc2)c(N)n1` [Example 66], the Motor dysfunction ([1]; dose 30 mg/kg) was “A (a coordination disorder of 25% or less)” and the inhibition in vivo at 30 mg/kg [2, 4] was > 90%.
`COc1ccc(-c2cnc(Oc3cccnc3)nc2)nn1` [Example 74] was tested, and the Motor dysfunction ([1]; dose 5 mg/kg) was “A (a coordination disorder of 25% or less)” and the inhibition in vivo at 5 mg/kg [2, 3] was > 90%.
`Nc1ccc(-c2cnc(Oc3cccnc3)nc2)cn1` [Example 90] was tested, and the Motor dysfunction ([1]; dose 5 mg/kg) was “A (a coordination disorder of 25% or less)” and the inhibition in vivo at 5 mg/kg [2, 3] was 70 to 90%.
`O=c1ccc(-c2cnc(Oc3ccccc3)nc2)n[nH]1` [Example 91, 6-(2-Phenoxypyrimidin-5-Yl)Pyridazin-3 (2H)-One] was tested, and the Motor dysfunction ([1]; dose 5 mg/kg) was “A (a coordination disorder of 25% or less)” and the inhibition in vivo at 5 mg/kg [2, 3] was > 90%.
For `O=C1CCC(c2cnc(Oc3ccccc3)nc2)=NN1` [Example 92, 6-(2-Phenoxypyrimidin-5-Yl)-4,5-Dihydropyridazin-3 (2H)-One], the Motor dysfunction ([1]; dose 5 mg/kg) was “A (a coordination disorder of 25% or less)” and the inhibition in vivo at 5 mg/kg [2, 3] was > 90%.
In the case of `O=c1ccc(-c2cnc(Oc3cccc(F)c3)nc2)n[nH]1` [Example 93], the Motor dysfunction ([1]; dose 30 mg/kg) is reported as “A (a coordination disorder of 25% or less)” and the inhibition in vivo at 30 mg/kg [2, 4] is reported as > 90%.
In the case of `O=c1ccc(-c2cnc(Oc3ccccc3F)nc2)n[nH]1` [Example 95], the Motor dysfunction ([1]; dose 10 mg/kg) is reported as “A (a coordination disorder of 25% or less)” and the inhibition in vivo at 3 mg/kg [2, 3] is reported as > 90%.
With `O=c1ccc(-c2cnc(Oc3ccc(F)cc3)nc2)n[nH]1` [Example 97] the Motor dysfunction ([1]; dose 3 mg/kg) was “A (a coordination disorder of 25% or less)” and the inhibition in vivo at 3 mg/kg [2, 3] was > 90%.
For `O=C1CCC(c2cnc(Oc3ccc(F)cc3)nc2)=NN1` [Example 98], the Motor dysfunction ([1]; dose 3 mg/kg) was “A (a coordination disorder of 25% or less)” and the inhibition in vivo at 3 mg/kg [2, 3] was > 90%.
With `O=c1ccc(-c2cnc(Oc3cccc(C(F)(F)F)c3)nc2)n[nH]1` [Example 99] the Motor dysfunction ([1]; dose 10 mg/kg) was “A (a coordination disorder of 25% or less)” and the inhibition in vivo at 10 mg/kg [2, 3] was > 90%.
`O=c1ccc(-c2cnc(Oc3c(F)cccc3F)nc2)n[nH]1` [Example 101] was tested, and the Motor dysfunction ([1]; dose 3 mg/kg) was “A (a coordination disorder of 25% or less)” and the inhibition in vivo at 3 mg/kg [2, 3] was > 90%.
For `O=c1ccc(-c2cnc(Oc3cc(F)cc(F)c3)nc2)n[nH]1` [Example 102], the Motor dysfunction ([1]; dose 10 mg/kg) was “A (a coordination disorder of 25% or less)” and the inhibition in vivo at 10 mg/kg [2, 3] was > 90%.
In the case of `O=c1ccc(-c2cnc(Oc3ccccc3)nc2)c[nH]1` [Example 103], the Motor dysfunction ([1]; dose 30 mg/kg) is reported as “A (a coordination disorder of 25% or less)” and the inhibition in vivo at 30 mg/kg [2, 4] is reported as > 90%.
In the case of `O=c1[nH]cccc1-c1cnc(Oc2ccccc2)nc1` [Example 107], the Motor dysfunction ([1]; dose 30 mg/kg) is reported as “A (a coordination disorder of 25% or less)” and the inhibition in vivo at 30 mg/kg [2, 4] is reported as > 90%.
With `O=c1ccc(-c2cnc(Oc3cccnc3)nc2)n[nH]1` [Example 113] the Motor dysfunction ([1]; dose 10 mg/kg) was “A (a coordination disorder of 25% or less)” and the inhibition in vivo at 10 mg/kg [2, 3] was > 90%.
With `O=c1[nH]nccc1-c1cnc(Oc2ccccc2)nc1` [Example 114, 4-(2-Phenoxypyrimidin-5-Yl)Pyridazin-3 (2H)-One] the Motor dysfunction ([1]; dose 5 mg/kg) was “A (a coordination disorder of 25% or less)” and the inhibition in vivo at 5 mg/kg [2, 3] was > 90%.
